This is an account of results in PMC5572671 (Biomaterials, 2017).

Read-outs that look alike come from different tables or passages of the source.

For data set [1], the system named is Caco-2 monolayers. To be noted: standard Caco-2 assay on collagen type-I; cited from earlier work.
The conditions of data set [2]: cited from earlier work.
Data set [3] has as its system Caco-2 monolayers.
Data set [4] concerns Caco-2 monolayers. Description: Caco-2 monolayer drug transport assay. To be noted: Fig. 6; 2 h; LC-MS. Background: Caco-2 monolayers are a common model of the intestinal barrier.

With `CNC(=C[N+](=O)[O-])NCCSCc1ccc(CN(C)C)o1` [ranitidine], the “absorption predicted by the Caco-2 assay” value in the data set on Caco-2 monolayers [1] is given as “little to no absorption”. Besides, in data set [2], the in vivo absorption is 51%. The “Papp for cells on eECM with decreased CBD and decreased stiffness compared to cells grown on collagen” value with Caco-2 monolayers [3] is listed as “significantly higher”.
Turning to `NC(N)=Nc1nc(CSCCC(N)=NS(N)(=O)=O)cs1` [famotidine], the in vivo absorption in data set [2] is 35%.
With `CC(C)(C)NCC(O)COc1cccc2c1CC(O)C(O)C2` (stereo not shown) [nadolol], the “Papp for cells on eECM with decreased CBD and decreased stiffness compared to cells grown on collagen” value in the data set with Caco-2 monolayers [4] was “significantly higher”. Also, in data set [2], the in vivo absorption is given as 45%.
In the case of `C[C@@H]1C[C@H]2[C@@H]3CCC4=CC(=O)C=C[C@]4(C)[C@@]3(F)[C@@H](O)C[C@]2(C)[C@@]1(O)C(=O)CO` [dexamethasone], the in vivo absorption in data set [2] is listed as more than 85%.
